Test results reported in ChEMBL document CHEMBL2331515, “Design, synthesis, and pharmacological characterization of novel endomorphin-1 analogues as extremely potent μ-opioid agonists” (J Med Chem, 2013).
pEC50, pIC50, pKi: −log10 of the molar value. Activity calls are given as the source filed them. The calls are words filed in the database; no cut-off is given here.

Assays:
Mus musculus [1] = assay: Antinociceptive activity in icv dosed Kunming mouse assessed as tail withdrawal latency by hot water tail-flick test; format: functional; settings: for ED50: central
Mus musculus [2] = assay: Antinociceptive activity in Kunming mouse assessed as tail withdrawal latency at 2 mg/kg, iv by hot water tail-flick test in presence of naloxone methiodide; format: functional, organism-based; parameters: dose 2 mg/kg
Mus musculus [3] = assay: Antinociceptive activity in Kunming mouse assessed as tail withdrawal latency at 2 mg/kg, iv by hot water tail-flick test in presence of naloxone; format: functional, organism-based; parameters: dose 2 mg/kg
Mus musculus [4] = assay: Antinociceptive activity in Kunming mouse assessed as tail withdrawal latency at 2 mg/kg, iv after 15 to 20 mins by hot water tail-flick test relative to control; format: functional, organism-based; parameters: dose 2 mg/kg
Mus musculus [5] = assay: Antinociceptive activity in icv dosed Kunming mouse assessed as tail withdrawal latency by hot water tail-flick test in presence of naloxone; format: functional, organism-based
Mus musculus [6] = assay: Antinociceptive activity in Kunming mouse assessed as tail withdrawal latency at 0.67 to 20 nmol/kg, icv by hot water tail-flick test; format: functional, organism-based; settings: TDE = time-dependent effect
[7] = Half life in mouse brain homogenate by RP-HPLC analysis; format: ADME, tissue-based
Mu-type opioid receptor [8] = target: T1, Mu-type opioid receptor (Homo sapiens, UniProt P35372); assay: Agonist activity at FLAG-tagged mu-type opioid receptor (unknown origin) expressed in HEK293 cells assessed as stimulation of ERK1/2 phosphorylation at 1 uM after 2 mins by Western blotting analysis; format: cell-based
Mu-type opioid receptor [9] = target: T1, Mu-type opioid receptor; assay: Agonist activity at FLAG-tagged mu-type opioid receptor (unknown origin) expressed in HEK293 cells assessed as stimulation of ERK1/2 phosphorylation at 1 uM after 10 mins by Western blotting analysis; format: cell-based; settings: TDE = time-dependent effect
[10] = target: T2, Delta-type opioid receptor (Homo sapiens, UniProt P41143); assay: Agonist activity at Myc-tagged delta-type opioid receptor (unknown origin) expressed in HEK293 cells assessed as inhibition of forskolin-stimulated cAMP accumulation after 30 mins by liquid scintillation counting analysis relative to DAMGO; format: functional, cell-based
[11] = target: T2, Delta-type opioid receptor; assay: Agonist activity at Myc-tagged delta-type opioid receptor (unknown origin) expressed in HEK293 cells assessed as inhibition of forskolin-stimulated cAMP accumulation after 30 mins by liquid scintillation counting analysis; format: functional, cell-based
Mu-type opioid receptor [12] = target: T1, Mu-type opioid receptor; assay: Agonist activity at FLAG-tagged mu-type opioid receptor (unknown origin) expressed in HEK293 cells assessed as inhibition of forskolin-stimulated cAMP accumulation after 30 mins by liquid scintillation counting analysis relative to DAMGO; format: functional, cell-based
Mu-type opioid receptor [13] = target: T1, Mu-type opioid receptor; assay: Agonist activity at FLAG-tagged mu-type opioid receptor (unknown origin) expressed in HEK293 cells assessed as inhibition of forskolin-stimulated cAMP accumulation after 30 mins by liquid scintillation counting analysis; format: functional, cell-based
[14] = target: Mu-type opioid receptor (Mus musculus) (UniProt P42866); assay: Agonist activity at mu-type opioid receptor in Kunming mouse vas deferens assessed as inhibition of electrically evoked muscle contraction in presence of naltrindole
Mu-type opioid receptor [15] = target: Mu-type opioid receptor (Mus musculus, UniProt P42866); assay: Agonist activity at mu-type opioid receptor in Kunming mouse vas deferens assessed as inhibition of electrically evoked muscle contraction
Mu-type opioid receptor [16] = target: Mu-type opioid receptor (Cavia porcellus, UniProt P97266); assay: Agonist activity at mu-type opioid receptor in guinea pig ileum assessed as inhibition of electrically evoked muscle contraction; format: tissue-based
[17] = Selectivity ratio of Ki for kappa-type opioid receptor (unknown origin) to Ki for FLAG-tagged mu-type opioid receptor (unknown origin); settings: Homo sapiens
Homo sapiens = species on record: Homo sapiens; assay: Selectivity ratio of Ki for Myc-tagged delta-type opioid receptor (unknown origin) to Ki for FLAG-tagged mu-type opioid receptor (unknown origin)
[18] = target: Kappa-type opioid receptor (Homo sapiens, UniProt P41145); assay: Displacement of [3H]U69,593 from kappa-type opioid receptor (unknown origin) expressed in HEK293 cells after 60 mins by liquid scintillation counting analysis; format: cell-based
[19] = target: T2, Delta-type opioid receptor; assay: Displacement of [3H]DPDPE from Myc-tagged delta-type opioid receptor (unknown origin) expressed in HEK293 cells after 60 mins by liquid scintillation counting analysis; format: cell-based
Mu-type opioid receptor [20] = target: T1, Mu-type opioid receptor; assay: Displacement of [3H]DAMGO from FLAG-tagged mu-type opioid receptor (unknown origin) expressed in HEK293 cells after 60 mins by liquid scintillation counting analysis; format: cell-based

T1 sequence (P35372 whole entry): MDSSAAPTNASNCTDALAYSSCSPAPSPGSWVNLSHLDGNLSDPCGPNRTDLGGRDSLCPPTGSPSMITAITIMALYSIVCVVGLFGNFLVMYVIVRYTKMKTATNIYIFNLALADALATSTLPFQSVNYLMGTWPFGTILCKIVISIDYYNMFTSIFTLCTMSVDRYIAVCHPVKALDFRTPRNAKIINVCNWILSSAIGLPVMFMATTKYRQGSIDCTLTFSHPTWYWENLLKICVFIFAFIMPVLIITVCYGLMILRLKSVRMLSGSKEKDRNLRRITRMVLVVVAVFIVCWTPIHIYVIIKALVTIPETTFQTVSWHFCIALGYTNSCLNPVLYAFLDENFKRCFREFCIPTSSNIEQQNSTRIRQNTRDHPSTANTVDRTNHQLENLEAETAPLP
Mu-type opioid receptor (Mus musculus, UniProt P42866), sequence (P42866 whole entry): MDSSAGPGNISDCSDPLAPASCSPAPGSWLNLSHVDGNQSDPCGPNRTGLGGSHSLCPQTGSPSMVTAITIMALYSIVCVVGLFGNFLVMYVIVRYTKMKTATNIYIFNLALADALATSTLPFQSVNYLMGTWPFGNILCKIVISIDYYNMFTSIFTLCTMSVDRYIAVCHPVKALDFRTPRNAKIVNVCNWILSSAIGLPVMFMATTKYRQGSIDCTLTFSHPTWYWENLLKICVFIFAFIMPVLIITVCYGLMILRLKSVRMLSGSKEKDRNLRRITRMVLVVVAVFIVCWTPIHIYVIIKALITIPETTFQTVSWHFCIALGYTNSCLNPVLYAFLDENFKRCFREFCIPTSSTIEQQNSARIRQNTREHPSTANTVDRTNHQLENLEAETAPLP
Mu-type opioid receptor (Mus musculus), sequence (P42866 whole entry): as above
Mu-type opioid receptor (Cavia porcellus, UniProt P97266), sequence (P97266 whole entry): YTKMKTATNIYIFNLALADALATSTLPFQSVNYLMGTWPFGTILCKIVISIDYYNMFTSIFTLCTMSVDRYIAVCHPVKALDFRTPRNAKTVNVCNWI
T2 sequence (P41143 whole entry): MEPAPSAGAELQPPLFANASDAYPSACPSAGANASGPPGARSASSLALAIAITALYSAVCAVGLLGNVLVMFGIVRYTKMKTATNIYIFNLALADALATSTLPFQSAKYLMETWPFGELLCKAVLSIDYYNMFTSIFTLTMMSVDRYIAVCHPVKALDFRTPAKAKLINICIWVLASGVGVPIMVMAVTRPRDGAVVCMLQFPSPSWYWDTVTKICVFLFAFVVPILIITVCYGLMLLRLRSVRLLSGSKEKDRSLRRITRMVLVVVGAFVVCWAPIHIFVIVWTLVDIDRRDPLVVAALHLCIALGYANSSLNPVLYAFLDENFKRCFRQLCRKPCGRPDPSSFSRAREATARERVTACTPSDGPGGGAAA
Kappa-type opioid receptor, sequence (P41145 whole entry): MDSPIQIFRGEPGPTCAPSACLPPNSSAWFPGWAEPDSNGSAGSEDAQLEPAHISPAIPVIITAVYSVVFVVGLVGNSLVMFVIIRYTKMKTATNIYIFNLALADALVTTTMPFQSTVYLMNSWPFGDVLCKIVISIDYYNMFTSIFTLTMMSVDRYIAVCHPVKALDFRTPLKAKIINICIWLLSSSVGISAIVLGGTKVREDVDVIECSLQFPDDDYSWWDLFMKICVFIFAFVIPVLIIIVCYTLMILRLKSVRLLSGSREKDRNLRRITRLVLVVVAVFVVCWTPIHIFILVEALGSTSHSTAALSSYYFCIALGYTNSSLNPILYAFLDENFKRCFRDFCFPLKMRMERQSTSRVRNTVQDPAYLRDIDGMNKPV

Row | Compound | Activity (Mus musculus [1]) | ED50 (Mus musculus [1]) [µmol/kg] | Activity (Mus musculus [2]) | Activity (Mus musculus [3]) | Activity (Mus musculus [4]) | Activity (Mus musculus [5]) | Activity (Mus musculus [6]) | half-life [7] [h] | Activity (Mu-type opioid receptor [8]) | Activity (Mu-type opioid receptor [9]) | Activity [11] | Emax (Mu-type opioid receptor [12]) [%] | pEC50 (Mu-type opioid receptor [13]) | inhibition (Mu-type opioid receptor [13]) | inhibition [14] | pIC50 (Mu-type opioid receptor [15]) | pIC50 (Mu-type opioid receptor [16]) | Ratio Ki (Homo sapiens) | pKi [19] | pKi (Mu-type opioid receptor [20]) | other results
1 | C=C(C(N)=O)[C@@H](NC(=O)[C@H](Cc1c[nH]c2ccccc12)NC(=O)[C@H]1CCN(C(=O)[C@@H](N)Cc2c(C)cc(O)cc2C)C1)c1ccccc1 | Dose-dependent effect | 0.000779 | Active | inactive | Active | inactive | tde | > 10 | Active | tde | Dose-dependent effect | 97.1 | 12.97 | Dose-dependent effect | Active | 8.82 | 9.27 | 1380 | 7.72 | 10.86 | Emax [10]: 77.6%; pEC50 [11]: 7.39; Ratio Ki [17]: 17500; pKi [18]: 6.62
2 | C=C(C(N)=O)[C@@H](NC(=O)[C@H](Cc1c[nH]c2ccccc12)NC(=O)[C@@H]1CCN(C(=O)[C@@H](N)Cc2ccc(O)cc2)C1)c1ccccc1 | – | – | – | – | – | – | – | – | – | – | Dose-dependent effect | 96.8 | 10.40 | Dose-dependent effect | Active | 8.64 | 8.74 | 9490 | 5.55 | 9.53 | –
3 | C=C(C(N)=O)[C@@H](NC(=O)[C@H](Cc1c[nH]c2ccccc12)NC(=O)[C@H]1CCN(C(=O)[C@@H](N)Cc2c(C)cc(O)cc2C)C1)c1ccco1 | Dose-dependent effect | 0.00095 | Active | inactive | Active | inactive | tde | > 10 | Active | tde | Dose-dependent effect | 98.6 | 12.96 | Dose-dependent effect | Active | 9.02 | 9.08 | 2380 | 7.52 | 10.89 | Emax [10]: 72.2%; pEC50 [11]: 7.33; Ratio Ki [17]: 14100; pKi [18]: 6.74
4 | C=C(C(N)=O)[C@@H](NC(=O)[C@H](Cc1c[nH]c2ccccc12)NC(=O)[C@H]1CCN(C(=O)[C@@H](N)Cc2ccc(O)cc2)C1)c1ccccc1 | – | – | – | – | – | – | – | – | – | – | Dose-dependent effect | 95.5 | 10.24 | Dose-dependent effect | Active | 8.31 | 8.49 | 9720 | 5.25 | 9.24 | –
5 | C=C(C(N)=O)[C@@H](NC(=O)[C@H](Cc1c[nH]c2ccccc12)NC(=O)[C@@H]1CCN(C(=O)[C@@H](N)Cc2ccc(O)cc2)C1)c1ccco1 | – | – | – | – | – | – | – | – | – | – | Dose-dependent effect | 96.2 | 11.07 | Dose-dependent effect | Active | 8.54 | 8.78 | 16800 | 5.56 | 9.78 | –
